The assay concerns P. aeruginosa PA01. In words: Overnight culture growth assay. It is filed as cell-based.

Converted amounts (≈) assume the structure as drawn. Where a SMILES comes first, the peptide text is derived from it. Bridges are numbered along the chain shown (N, C = ends). [ ]: non-standard residue; d: D form. The star is where a group is joined. X1 = CC[C@H](C)CCCCC(=O)*; Dab = NCC[C@H](N)C(=O)O

The MIC is the least concentration at which growth counts as inhibited. Read a low MIC as inhibition by little substance.

Turning to D[KLAKLAK]2 [dKK], the “inhibitory activity against P. aeruginosa in screening range” value (peptide concentration range 0 – 5 µM, Figure S1) is “no activity”.
For the setting “P. aeruginosa in LB, 2×10^6 CFU/ml, turbidity at 600 nm”, `CC[C@H](C)CCCCC(=O)N[C@@H](CCN)C(=O)N[C@H](C(=O)N[C@@H](CCN)C(=O)N[C@H]1CCNC(=O)[C@H]([C@@H](C)O)NC(=O)[C@H](CCN)NC(=O)[C@H](CCN)NC(=O)[C@H](CC(C)C)NC(=O)[C@@H](CC(C)C)NC(=O)[C@H](CCN)NC1=O)[C@@H](C)O` [colistin] (X1-[Dab]T[Dab][Dab][Dab][dL]L[Dab][Dab]T; lactam 4-C (inferred); N-terminus assumed) registered a minimum inhibitory concentration (MIC) of 0.25 µg/mL (≈ 0.214 µM).

These data come from publication PMC5765747 (Advanced materials (Deerfield Beach, Fla.), 2017).
